# Patent publication US8148395B2, “Azolopyridin-3-one derivatives as inhibitors of lipases and phospholipases” (Sanofi-Aventis, priority 2006, dated 2012)
# Target: T1, endothelial lipase (EL) (Homo sapiens, UniProt Q9Y5X9)
# T1 construct: EL is released as secretory protein in high concentration into cell culture medium (conditioned medium) by recombinant cell lines (CHO, HEK293); made in house; host or cells: recombinant cell lines (CHO, HEK293); concentrated conditioned medium used as enzyme solution
# T1 sequence (Q9Y5X9 21-500): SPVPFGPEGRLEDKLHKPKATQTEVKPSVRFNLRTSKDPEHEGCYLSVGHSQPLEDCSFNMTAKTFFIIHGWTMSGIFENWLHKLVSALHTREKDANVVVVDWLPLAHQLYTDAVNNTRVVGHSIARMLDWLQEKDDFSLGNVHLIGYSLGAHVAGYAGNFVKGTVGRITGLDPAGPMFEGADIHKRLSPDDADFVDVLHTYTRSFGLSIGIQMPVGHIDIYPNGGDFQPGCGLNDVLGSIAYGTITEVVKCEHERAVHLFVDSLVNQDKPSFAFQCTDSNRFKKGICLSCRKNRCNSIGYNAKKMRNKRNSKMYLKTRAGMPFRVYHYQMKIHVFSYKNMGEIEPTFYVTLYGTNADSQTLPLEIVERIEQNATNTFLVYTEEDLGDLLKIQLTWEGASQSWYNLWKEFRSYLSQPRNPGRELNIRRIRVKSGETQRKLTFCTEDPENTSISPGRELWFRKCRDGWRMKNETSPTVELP
# Assay: EL inhibition assay (EL activity assay, fluorescent Bodipy phospholipid substrate)
# Assay type: biochemical
# Conditions: EL from conditioned medium of recombinant cell lines (CHO, HEK293); 37° C., 90 minutes; HPTLC fluorescence read-out
# Excerpt: EL is released as secretory protein in high concentration into cell culture medium (conditioned medium) by recombinant cell lines (CHO, HEK293). This was employed as enzyme solution after concentration.
# The phospholipase-specific substrate 1,2-bis(4,4-difluoro-5,7-dimethyl-4-bora-3a,4a-diaza-s-indacene-3-undecanoyl)-sn-glycero-3-phosphocholine, (manufacturer Molecular Probes) was used to characterize the enzymatic activity of endothelial lipase and the effect of inhibitors. Hydrolysis of the A1 ester linkage of this phospholipid by the enzyme liberates a fatty acid labeled with the fluorescent dye Bodipy which can be detected after separation by thin-layer chromatography on an HPTLC plate (silica gel 60, Merck) or directly in the reaction vessel by measuring the fluorescence.
# The substrate solution was prepared by 100 μg of 1,2-bis(4,4-difluoro-5,7-dimethyl-4-bora-3a,4a-diaza-s-indacene-3-undecanoyl)-sn-glycero-3-phospho-choline (manufacturer Molecular Probes) being dissolved in 100 μl of DMSO and taken up with 2.4 mg of tripalmitin (Sigma) in 393 μl of chloroform which contained 20 mg/ml DOP-choline (1,2-dioleoyl-sn-glycero-3-phosphocholine). 39.3 μl of this lipid mixture were transferred into a fresh reaction vessel and the solvent was evaporated. The lipid mixture was dissolved in 4 ml of 200 mM TRIS-HCl, 150 mM sodium chloride, pH=7.4, by sonication twice. The subsequent enzymic reaction took place at 37° C. for 90 minutes. For this purpose, 20 μl of the substrate solution were incubated with 2 μl of inhibitor of appropriate concentration (dissolved in 10% DMSO, using 10% DMSO solution for control) and 2 μl of enzyme solution (conditioned medium). Then 4 μl of the assay mixture were loaded onto an HPTLC plate (silica gel 60, Merck), and the liberated fluorescent dye was separated for detection with an eluent (diethyl ether:petroleum benzene:acetic acid [78:22:1]). After evaporation of the eluent, the plate was read in a fluorescence scanner. An increased liberation of the fluorescent dye in the uninhibited reaction was to be observed as a measure of the enzymic activity.
# The enzymatic activity was reduced as a function of the inhibitor concentration used. The inhibitor concentration at which a half-maximum enzymatic activity is observed is called IC50.
row,IC50 [µM],Compound
1,0.02,"Cc1ccccc1CNC(=O)n1c(=O)c2c(C)cc(Cl)nc2n1C [Example 2, 6-Chloro-1,4-dimethyl-3-oxo-1,3-dihydro-pyrazolo[3,4-b]pyridine-2-carboxylic acid 2-methylbenzylamide]"
2,0.019,"Cc1cc(Cl)nc2c1c(=O)n(C(=O)NCCc1cccs1)n2C [Example 4, 6-Chloro-1,4-dimethyl-3-oxo-1,3-dihydropyrazolo[3,4-b]pyridine-2-carboxylic acid (2-thiophen-2-ylethyl)amide]"
3,0.043,"CCCCCCNC(=O)n1oc2ncccc2c1=O [Example 6, 3-Oxo-3H-isoxazolo[5,4-b]pyridine-2-carboxylic acid hexylamide]"
4,0.091,"Cc1cc(Cl)nc2[nH]n(C(=O)N[C@@H]3CCc4ccccc43)c(=O)c12 [Example 8, 6-Chloro-4-methyl-3-oxo-1,3-dihydropyrazolo[3,4-b]pyridine-2-carboxylic acid (R)-indan-1-ylamide]"
5,1.21,"Cc1cc(Cl)nc2[nH]n(C(=O)NC3CCCc4ccccc43)c(=O)c12 (stereo not shown) [Example 9, 6-Chloro-4-methyl-3-oxo-1,3-dihydropyrazolo[3,4-b]pyridine-2-carboxylic acid (1,2,3,4-tetrahydronaphthalen-1-yl)amide]"
6,0.001,"CCCCCCNC(=O)n1c(=O)c2c(C)cc(Cl)nc2n1CCCC [Example 10, 1-Butyl-6-chloro-4-methyl-3-oxo-1,3-dihydropyrazolo[3,4-b]pyridine-2-carboxylic acid hexylamide]"
7,1.23,"CCCCn1c2nc(Cl)cc(C)c2c(=O)n1C(=O)NCCc1cccs1 [Example 11, 1-Butyl-6-chloro-4-methyl-3-oxo-1,3-dihydropyrazolo[3,4-b]pyridine-2-carboxylic acid (2-thiophen-2-ylethyl)amide]"
8,0.029,"Cc1cc(Cl)nc2c1c(=O)n(C(=O)NC1CCCc3ccccc31)n2C (stereo not shown) [Example 12, 6-Chloro-1,4-dimethyl-3-oxo-1,3-dihydropyrazolo[3,4-b]pyridine-2-carboxylic acid (1,2,3,4-tetrahydronaphthalen-1-yl)amide]"
9,0.204,"Cc1cc(Cl)nc2c1c(=O)n(C(=O)N[C@H]1CCc3ccccc31)n2C [Example 13, 6-Chloro-1,4-dimethyl-3-oxo-1,3-dihydropyrazolo[3,4-b]pyridine-2-carboxylic acid (S)-indan-1-ylamide]"
10,0.008,"Cc1cc(Cl)nc2c1c(=O)n(C(=O)N[C@@H]1CCc3ccccc31)n2C [Example 14, 6-Chloro-1,4-dimethyl-3-oxo-1,3-dihydropyrazolo[3,4-b]pyridine-2-carboxylic acid (R)-indan-1-ylamide]"
11,0.057,"CCCCCCNC(=O)n1c(=O)c2c(C)cc(Cl)nc2n1Cc1ccccc1 [Example 15, 1-Benzyl-6-chloro-4-methyl-3-oxo-1,3-dihydropyrazolo[3,4-b]pyridine-2-carboxylic acid hexylamide]"
12,0.01,"CCCCCCNC(=O)n1oc2nc(C(F)(F)F)ccc2c1=O [Example 16, 3-Oxo-6-trifluoromethyl-3H-isoxazolo[5,4-b]pyridine-2-carboxylic acid hexylamide]"
13,0.011,"CCCCCCNC(=O)n1oc2nc(C)ccc2c1=O [Example 17, 6-Methyl-3-oxo-3H-isoxazolo[5,4-b]pyridine-2-carboxylic acid hexylamide]"
